Source: paper PMC12799524, “Putative new biomarkers for renal transporter-mediated drug-drug interactions: Characterization as substrates of organic cation transporter 2, multidrug and toxin extrusion protein 1, and other important drug transporters” (Drug Metabolism and Disposition, 2025)
Entries after “also recorded” stand apart in the source; their conditions may differ.

How the values were obtained:
human OATP1B3 = biological target: T1, human OATP1B3 (Homo sapiens, UniProt Q9NPD5); assay: Uptake assay in HEK-OATP1B3 vs HEK-VC cells; assay type: in vitro ADME
T1 construct: expressed in transfected cells; host or cells: HEK293 (HEK-OATP1B3)
T1 sequence (Q9NPD5 1-702): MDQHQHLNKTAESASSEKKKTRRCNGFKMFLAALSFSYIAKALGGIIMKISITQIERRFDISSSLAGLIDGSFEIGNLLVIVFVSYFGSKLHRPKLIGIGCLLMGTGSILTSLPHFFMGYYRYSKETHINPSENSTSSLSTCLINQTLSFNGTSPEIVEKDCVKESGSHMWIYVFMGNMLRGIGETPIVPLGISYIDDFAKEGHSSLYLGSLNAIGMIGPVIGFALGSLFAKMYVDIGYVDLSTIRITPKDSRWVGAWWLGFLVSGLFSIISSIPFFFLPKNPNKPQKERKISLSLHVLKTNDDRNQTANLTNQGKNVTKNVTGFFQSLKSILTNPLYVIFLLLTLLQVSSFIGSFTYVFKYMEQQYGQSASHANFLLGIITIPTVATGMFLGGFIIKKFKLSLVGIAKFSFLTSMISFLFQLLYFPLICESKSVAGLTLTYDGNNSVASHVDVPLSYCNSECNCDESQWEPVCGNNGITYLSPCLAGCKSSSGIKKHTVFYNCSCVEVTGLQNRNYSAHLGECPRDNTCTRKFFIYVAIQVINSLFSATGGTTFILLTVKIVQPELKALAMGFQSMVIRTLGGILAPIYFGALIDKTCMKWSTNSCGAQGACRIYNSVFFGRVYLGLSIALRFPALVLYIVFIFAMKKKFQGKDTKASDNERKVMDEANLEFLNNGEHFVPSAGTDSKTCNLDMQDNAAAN
Procedure: (§1) Transport experiments were performed 48 hours after seeding.

MATE1 [1] = biological target: T2, MATE1 (Homo sapiens, UniProt Q96FL8); assay: Uptake assay in HEK-MATE1 vs HEK-VC cells (pH 8.0); conditions: for Uptake in HEK-MATE1 cells compared to HEK-VC cells: 10 μM substrate; for Uptake in HEK-MATE1 cells compared to HEK-VC cells (in words) / Effect of cimetidine on uptake in HEK-MATE1 cells: 10 and 100 μM substrate; for Uptake in HEK-MATE1 cells compared to HEK-VC cells (in words): pH 8.0; for Effect of cimetidine on uptake in HEK-MATE1 cells: cimetidine 50 μM; for In Vitro MATE1 (substrate class): summary of in vitro uptake/transport results
T2 sequence (Q96FL8 1-570): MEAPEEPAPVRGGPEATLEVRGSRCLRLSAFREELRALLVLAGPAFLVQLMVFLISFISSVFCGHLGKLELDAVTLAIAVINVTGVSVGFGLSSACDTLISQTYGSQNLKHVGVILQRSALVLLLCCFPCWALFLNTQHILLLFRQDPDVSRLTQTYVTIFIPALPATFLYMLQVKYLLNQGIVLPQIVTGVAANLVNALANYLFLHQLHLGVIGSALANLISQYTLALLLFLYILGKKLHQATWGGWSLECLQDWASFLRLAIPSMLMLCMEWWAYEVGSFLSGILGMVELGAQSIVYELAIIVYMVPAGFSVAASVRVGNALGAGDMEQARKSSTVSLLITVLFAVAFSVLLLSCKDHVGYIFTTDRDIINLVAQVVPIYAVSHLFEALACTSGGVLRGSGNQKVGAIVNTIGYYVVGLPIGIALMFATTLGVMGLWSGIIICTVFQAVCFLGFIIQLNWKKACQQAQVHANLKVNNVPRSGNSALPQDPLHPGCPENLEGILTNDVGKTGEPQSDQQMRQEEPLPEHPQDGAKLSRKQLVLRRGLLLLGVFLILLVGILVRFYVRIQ
Procedure: as §1
(§2) The intracellular background of all 5 compounds in HEK cells at the beginning of the uptake experiments was investigated 48 hours after seeding without incubation with transport buffer (ie, 0 minutes). […] Then, cells were lysed with ice-cold 80% MeOH containing the aforementioned recovery standards. In addition, the impact of a 5-minute incubation period with transport buffer without added substance was investigated.

human OCT2 [2] = biological target: T3, human OCT2 (Homo sapiens, UniProt O15244); assay: Concentration-dependent transport in HEK-OCT2 cells (Km, Vmax); conditions: concentrations up to 2000 μM; Km not calculable
T3 sequence (O15244 1-555): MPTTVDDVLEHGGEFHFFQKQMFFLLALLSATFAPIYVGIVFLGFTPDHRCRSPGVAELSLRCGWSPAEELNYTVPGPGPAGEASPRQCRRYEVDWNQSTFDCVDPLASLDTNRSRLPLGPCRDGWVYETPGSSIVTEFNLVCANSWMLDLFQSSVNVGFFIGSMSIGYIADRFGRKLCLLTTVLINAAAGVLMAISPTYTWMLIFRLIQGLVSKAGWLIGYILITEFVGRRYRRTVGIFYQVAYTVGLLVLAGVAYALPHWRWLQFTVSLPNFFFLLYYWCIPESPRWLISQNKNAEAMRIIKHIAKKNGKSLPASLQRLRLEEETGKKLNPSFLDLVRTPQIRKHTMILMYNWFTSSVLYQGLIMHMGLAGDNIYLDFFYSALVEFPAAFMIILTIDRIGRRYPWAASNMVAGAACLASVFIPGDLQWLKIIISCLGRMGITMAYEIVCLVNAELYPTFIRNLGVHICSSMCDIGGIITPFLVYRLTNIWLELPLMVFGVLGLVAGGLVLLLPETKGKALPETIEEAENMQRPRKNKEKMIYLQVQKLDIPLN
Procedure: (§3) Data are presented in percentage of respective controls (which were set to 100%) or in pmol × mg protein^–1 × min^–1 for concentration-dependent transport as mean ± SEM. All results were normalized to the mean protein concentrations of the cell lysates in the respective control experiments.
(§4) Experiments with putative biomarkers in HEK-OCT2 or HEK-MATE1 cells were performed with 6 independent biological replicates, whereas all other experiments involving HEK, MDCK, or Caco-2 cells were performed with 4 independent biological replicates. Pairwise comparisons were analyzed for statistical significance with two-tailed unpaired Student’s t test and multiple comparisons by one-way ANOVA with subsequent Tukey-Kramer multiple comparison test by using GraphPad Prism 10.0.2 (GraphPad Software). A value of P < .05 was considered as statistically significant. Km and Vmax values were determined with Michaelis-Menten enzyme kinetics curve fit using GraphPad Prism 10.0.2.

MATE1 [3] = biological target: T2, MATE1; assay: Concentration-dependent transport in HEK-MATE1 cells (Km, Vmax); assay type: in vitro ADME; design: expressed in transfected cells; host or cells: HEK293 (HEK-MATE1); conditions: HEK-MATE1 net uptake; for Vmax for MATE1-mediated uptake: 5 min; for Km at 5 min: human, HEK-MATE1 cells, read-out: Km for MATE1-mediated transport
Procedure: as §3, §4

human OCT2 [4] = biological target: T3, human OCT2; assay: Uptake assay in HEK-OCT2 vs HEK-VC cells; assay type: in vitro ADME; design: expressed in transfected cells; host or cells: HEK293 (HEK-OCT2); conditions: for Effect of cimetidine on uptake in HEK-OCT2 cells: cimetidine 50 μM; for Effect of cimetidine on uptake in HEK-OCT2 cells / Uptake in HEK-OCT2 cells compared to HEK-VC cells (in words): 10 and 100 μM substrate; for In Vitro OCT2 (substrate class): summary of in vitro uptake/transport results
Procedure: as §1, §2

OCT1 = conditions: read-out: Km for OCT1; cited from earlier work
OCT2 = conditions: read-out: Km value for OCT2; ref Ma et al 17; cited from earlier work
[5] = 5 minutes, pH 8.0, HEK-VC set to 100%
[6] = 10 μM substrate, 5 minutes, HEK-VC set to 100%

| Compound | In Vitro OATP1B3 (substrate class) (human OATP1B3) | Uptake in HEK-MATE1 cells compared to HEK-VC cells (MATE1 [1]; [5]) | Uptake in HEK-MATE1 cells compared to HEK-VC cells (in words) (MATE1 [1]; 5 minutes) | Effect of cimetidine on uptake in HEK-MATE1 cells (MATE1 [1]; 5 minutes) | In Vitro MATE1 (substrate class) (MATE1 [1]) | Vmax for MATE1-mediated uptake (MATE1 [3]) | Km at 5 min (MATE1 [3]) | Effect of cimetidine on uptake in HEK-OCT2 cells (human OCT2 [4]; 5 minutes) | In Vitro OCT2 (substrate class) (human OCT2 [4]) | Uptake in HEK-OCT2 cells compared to HEK-VC cells (human OCT2 [4]; [6]) | Uptake in HEK-OCT2 cells compared to HEK-VC cells (in words) (human OCT2 [4]; 5 minutes) | other results |
| --- | --- | --- | --- | --- | --- | --- | --- | --- | --- | --- | --- | --- |
| Cn1cnc(CCN)c1 [1-Methylhistamine, 1-methylhistamine] | - | 778% | significantly higher | significantly reduced | ++ | 441.4 ± 50.5 pmol*mg protein^-1*min^-1 | 307 ± 88.1 µM |  |  |  |  | Saturation of net uptake in HEK-OCT2 cells (human OCT2 [2]): did not result in a saturation; also recorded: not saturable |
| C[N+](C)(C)CCCCC(=O)[O-] [5-Amino valeric acid betaine, 5-amino valeric acid betaine] | 0 (significant uptake in HEK cells, but less than 300% of respective control cells or significant reduction of transcellular transport in Caco-2 cells, but reduction not below 50% of respective control without valspodar) |  | significantly lower |  | + |  |  | significantly reduced | + |  |  | Intracellular background in HEK-OCT2 cells compared to HEK-VC cells (human OCT2 [4]; 0 minutes, without added substance): lower; Intracellular concentration in HEK-OCT2 cells compared to HEK-VC cells (in words) (human OCT2 [4]; 10 μM substrate, 5 minutes): comparable; Intracellular concentration in HEK-OCT2 cells compared to HEK-VC cells (in words) (human OCT2 [4]; 100 μM substrate, 5 minutes): significantly higher; Intracellular background in HEK-OCT2 cells compared to HEK-VC cells (human OCT2 [4]; 5 minutes in transport buffer without added substance): lower; Intracellular background in HEK-MATE1 cells compared to HEK-VC cells (MATE1 [1]; 0 minutes and 5 minutes without added substance): lower |
| NCCc1c[nH]c2ccc(O)cc12 [Serotonin, serotonin] | - | 2469% | significantly higher | significantly reduced | ++ | 154.3 ± 7.3 pmol*mg protein^-1*min^-1 | 52.7 ± 10.9 µM | significantly reduced | ++ | 3960% | significantly higher | Uptake ratio in HEK-OCT2 cells compared to HEK-VC cells (human OCT2 [4]; 100 μM substrate, 5 minutes, HEK-VC set to 100%): 6281%; Uptake ratio in HEK-MATE1 cells compared to HEK-VC cells (MATE1 [1]; 100 μM substrate, 5 minutes, pH 8.0, HEK-VC set to 100%): 1461%; Km (OCT1): 197 ± 42 µM; Km (OCT2): 539 µM |
| NCCc1ccc(O)cc1 [Tyramine, tyramine] | - | 545% | significantly higher | significantly reduced | ++ |  |  | significantly reduced | ++ | 3245% | significantly higher |  |
